Where two headings read alike, the source gives them in different places. Some results are limits rather than exact numbers.

By Ki is commonly meant the dissociation constant of the complex between target and ligand, obtained from inhibition or displacement. The ED50 is the dose that gives a 50% effect, or the effect in half of the subjects.

The target in one assay is α1-adrenergic receptor. Kind of assay: [3H]prazosin binding (α1-receptors), rat cerebral cortices. Particulars: 0.35 nM [3H]prazosin, read-out: Binding affinity for the α1-adrenergic receptor, Ki. As for the experimental part:
[^3H]prazosin binding (α1-receptors):
Rat cerebral cortices were homogenized in 50 volumes of ice-cold 50 mM Tris-HCl pH 7.4. The homogenates were centrifuged at 48,000 x g for 10 minutes, and the pellets were resuspended in the same volume of ice-cold buffer, centrifuged, and resuspended two more times. The final pellets were resuspended in 100 volumes of 50 mM Tris-HCl, pH 7.4, containing 0.1 % ascorbic acid and 10 µM pargyline. […] Non-specific binding was determined in the presence of 10 µM phentolamine. The incubations were terminated by rapid filtration through Whatman GF/B filters using a Brandel cell harvester, after which the filters were washed with 3x3 ml of ice-cold buffer. The radioactivity retained on the filters was determined by liquid scintillation counting.

Assay [1] relates to rhythmic bladder voiding contractions. The experiment in a line: Volume-induced rhythmic bladder voiding contractions in anaesthetized rats. Type of assay: in vivo. The note with it: for AMPLITUDE mm Hg before treatment / FREQUENCY No. contr./15 min before treatment: baseline; for AMPLITUDE mm Hg before treatment / AMPLITUDE mm Hg after treatment: animals with frequency reduction <50%; for AMPLITUDE mm Hg before treatment / FREQUENCY No. contr./15 min before treatment / AMPLITUDE mm Hg after treatment / FREQUENCY No. contr./15 min after treatment: mean±S.E.; for BLADDER CONTRACTIONS Disappearance time: duration of bladder quiescence, mean (S.E. in next cell); for ED (10 min disappearance of contractions) / ED50: Rattus norvegicus, iv; for ED (10 min disappearance of contractions): extrapolated dose inducing 10 min of disappearance of the contractions, linear regression. As to the method:
Female Sprague Dawley rats weighing 225-275 g (Crl: CD° BR, Charles River Italia) were used. The animals were housed with free access to food and water and were maintained on a forced 12 h alternating light-dark cycle at 22-24°C for at least one week, except during the experiment. The activity on the rhythmic bladder voiding contractions was evaluated according to the method of Dray (J. Pharmcol. Methods, 13:157, 1985), with some modifications as in Guarneri (Phannacol. Res., 27:173, 1993). […] The catheter was tied in place with a ligature around the external urethral orifice and was connected with conventional pressure transducers (Statham P23 ID/P23 XL). […] The bladder was then filled via the recording catheter by incremental volumes of warm (37°C) saline until reflex bladder voiding contractions occurred (usually 0.8-1.5 ml). Two parameters were recorded from the cystometrogram: the frequency of voiding contractions, calculated by counting the number of peaks/15 min of observation, and the mean amplitude of these contractions (mean height of the peaks in mmHg) in the same time period. For intravenous (i. v. ) injection of bioactive compounds, a PE 50 polyethylene tubing filled with physiological saline was inserted into the jugular vein.
Bioactivity was assessed in individual animals (using 6-10 rats per dose), by recording the number and height of the peaks for 15 min after drug injection and comparing them with those previously recorded for 15 min after the intravenous administration of vehicle alone. […] The statistical significance of changes in frequency and amplitude before and after treatment was assessed by Student's t test for paired data. Changes showing a probability P<0.01 were considered significant.
An all-or-none criterion was also used to compare bioactivity in terms of ED50 values. Rats showing a treatment-related change of ≥30% relative to the basal value were considered to be positive. Quantal dose-response curves and ED50 values were evaluated by the method of Bliss (J. Pharm. Pharmacol., 11:192, 1938).
The rapid distension of the urinary bladder in urethane-anaesthetized rats produced a series of rhythmic bladder voiding contractions whose characteristics have been described (Maggie et al., Brain Res., 380, 83, 1986; Maggi, et al., J. Pharmacol. Exp. Ther., 230, 500, 1984). The frequency of these contractions is related to the sensory afferent arm of reflex micturition and to the integrity of the micturition centre, while their amplitude is a property of the efferent arm of the reflex (Maggi et al., J. Pharmacol. Meth., 15, 157, 1986; Maggi et al., Brain Res.. 415, 1, 1987; Maggi et al., Naun. Schmied. Arch. Pharmacol., 332, 276, 1986; Maggi et al., J. Urol., 136, 696, 1986).

Where [2] appears, read: read-out: ED50 FREQUENCY (and 95% confidence limits), i.v., quantal criterion (change ≥30% relative to basal value).
[3] abbreviates: i.v., inhibition of frequency of rhythmic bladder voidings (ED50).

For the compound `O=C(C1CCCCC1)N(CCN1CCN(c2cccc3[nH]ccc23)CC1)c1ccccn1` [Compound B, N-{2-[4-(4-Indolyl)-1-piperazinyl]-ethyl}-N-(2-pyridyl)-cyclohexanecarboxamide], the Ki at α1-adrenergic receptor stood at 458 nM. Besides, the “AMPLITUDE mm Hg before treatment” value in assay [1] (0.3 µg/kg i.v. group) is 31.0±3.7 mm Hg; in assay [1] (1 µg/kg i.v. group), 26.5±4.3 mm Hg; in assay [1] (3 µg/kg i.v. group), 33.7±2.4 mm Hg; in assay [1] (10 µg/kg i.v. group), 19.0 mm Hg. The “FREQUENCY No. contr./15 min before treatment” value in assay [1] (0.3 µg/kg i.v. group) turned out to be 10.7±1.4 No. contr./15 min; in assay [1] (1 µg/kg i.v. group), 11.7±1.5 No. contr./15 min; in assay [1] (3 µg/kg i.v. group) it was 9.7±0.8 No. contr./15 min; in assay [1] (10 µg/kg i.v. group), 11.7±1.7 No. contr./15 min; in assay [1] (30 µg/kg i.v. group) it was 12.0±1.1 No. contr./15 min. Further, the “AMPLITUDE mm Hg after treatment” value is on record as 27.7±4.1 mm Hg in assay [1] (0.3 µg/kg i.v.), 22.7±5.1 mm Hg in assay [1] (1 µg/kg i.v.), 25.3±1.2 mm Hg in assay [1] (3 µg/kg i.v.) and 17.0 mm Hg in assay [1] (10 µg/kg i.v.). For the same compound, the “BLADDER CONTRACTIONS Disappearance time” value turned out to be 1.10 min in assay [1] (0.3 µg/kg i.v.); 4.33 min in assay [1] (1 µg/kg i.v.); 7.58 min in assay [1] (3 µg/kg i.v.); 10.00 min in assay [1] (10 µg/kg i.v.); 8.85 min in assay [1] (30 µg/kg i.v.). The “FREQUENCY No. contr./15 min after treatment” value in assay [1] (0.3 µg/kg i.v.) was 11.3±1.7 No. contr./15 min; in assay [1] (1 µg/kg i.v.) it was 8.7±1.3 No. contr./15 min; in assay [1] (3 µg/kg i.v.), 4.7±1.1 No. contr./15 min; in assay [1] (10 µg/kg i.v.), 4.2±0.9 No. contr./15 min; in assay [1] (30 µg/kg i.v.) it was 4.5±1.4 No. contr./15 min. For the same compound, the ED (10 min disappearance of contractions) in assay [1] is 0.009 mg/kg. Further, in assay [1] (setting [2]), the ED50 stood at 0.001 mg/kg. For the same compound, in assay [1] (setting [3]), the “fold more active than NAN-190” value turned out to be 46 fold. Further, the “fold more active than flavoxate” value in assay [1] (setting [3]) was found to be 2650 fold.

Consider `COc1ccccc1N1CCN(CCCCN2C(=O)c3ccccc3C2=O)CC1` [NAN-190, 1-(2-methoxyphenyl)-4-[4-(2-phthalimido)-butyl]-piperazine], for which, at α1-adrenergic receptor, the Ki turned out to be 4.8 nM. In addition, the “AMPLITUDE mm Hg before treatment” value in assay [1] (30 µg/kg i.v. group) came out at 30.2±3.7 mm Hg; in assay [1] (100 µg/kg i.v. group), 22.5±1.7 mm Hg; in assay [1] (300 µg/kg i.v. group), 24.1±1.8 mm Hg. The “FREQUENCY No. contr./15 min before treatment” value in assay [1] (30 µg/kg i.v. group) worked out at 13.5±1.2 No. contr./15 min; in assay [1] (100 µg/kg i.v. group), 13.6±1.0 No. contr./15 min; in assay [1] (300 µg/kg i.v. group), 11.8±1.1 No. contr./15 min. Also, the “AMPLITUDE mm Hg after treatment” value was determined as 26.1±3.1 mm Hg in assay [1] (30 µg/kg i.v.), 17.3±2.9 mm Hg in assay [1] (100 µg/kg i.v.) and 17.6±1.7 mm Hg in assay [1] (300 µg/kg i.v.). Moreover, the “BLADDER CONTRACTIONS Disappearance time” value in assay [1] (30 µg/kg i.v.) is listed as 1.80 min; in assay [1] (100 µg/kg i.v.), 6.34 min; in assay [1] (300 µg/kg i.v.) it was 5.47 min. Besides, the entries for the “FREQUENCY No. contr./15 min after treatment” value in assay [1] (30 µg/kg i.v.), in assay [1] (100 µg/kg i.v.) and in assay [1] (300 µg/kg i.v.) were 11.8±1.5 No. contr./15 min, 6.4±1.1 No. contr./15 min and 6.6±1.1 No. contr./15 min, respectively. In assay [1], the ED (10 min disappearance of contractions) is more than 0.3 mg/kg. For the same compound, the ED50 in assay [1] (setting [2]) turned out to be 0.046 mg/kg.

For the compound `CCN(CC)CC#CCOC(=O)C(O)(c1ccccc1)C1CCCCC1` (stereo not shown) [Oxybutynin, oxybutynin], the “AMPLITUDE mm Hg before treatment” value turned out to be 26.7±2.7 mm Hg in assay [1] (30 µg/kg i.v. group); 25.0±3.7 mm Hg in assay [1] (100 µg/kg i.v. group); 20.9±1.7 mm Hg in assay [1] (300 µg/kg i.v. group); 20.3±2.4 mm Hg in assay [1] (1000 µg/kg i.v. group); 18.0±1.4 mm Hg in assay [1] (3000 µg/kg i.v. group). In addition, the “FREQUENCY No. contr./15 min before treatment” value is recorded as 14.8±1.9 No. contr./15 min in assay [1] (30 µg/kg i.v. group); 13.3±1.1 No. contr./15 min in assay [1] (100 µg/kg i.v. group); 10.1±0.7 No. contr./15 min in assay [1] (300 µg/kg i.v. group); 9.7±0.8 No. contr./15 min in assay [1] (1000 µg/kg i.v. group); 10.0±0.7 No. contr./15 min in assay [1] (3000 µg/kg i.v. group). Also, the “AMPLITUDE mm Hg after treatment” value in assay [1] (30 µg/kg i.v.) is on record as 23.3±2.5 mm Hg; in assay [1] (100 µg/kg i.v.), 18.7±2.7 mm Hg; in assay [1] (300 µg/kg i.v.), 13.6±0.8 mm Hg; in assay [1] (1000 µg/kg i.v.), 11.8±1.2 mm Hg; in assay [1] (3000 µg/kg i.v.), 10.8±1.0 mm Hg. Further, the “FREQUENCY No. contr./15 min after treatment” value in assay [1] (30 µg/kg i.v.) is recorded as 15.5±2.3 No. contr./15 min; in assay [1] (100 µg/kg i.v.), 14.7±1.0 No. contr./15 min; in assay [1] (300 µg/kg i.v.), 8.8±0.8 No. contr./15 min; in assay [1] (1000 µg/kg i.v.) it was 9.5±0.8 No. contr./15 min; in assay [1] (3000 µg/kg i.v.) it was 9.9±1.5 No. contr./15 min. In addition, the ED50 in assay [1] (read-out: ED50 AMPLITUDE (and 95% confidence limits)) is 0.24 mg/kg.

The values are drawn from patent publication EP0906100B1, “USE OF 5-HT 1A? RECEPTOR ANTAGONISTS FOR THE TREATMENT OF URINARY INCONTINENCE” (RECORDATI S.A., priority 1996, dated 1997).
